# Source: patent US6469027B1, “N-methyl-D-aspartate (NMDA) receptor blockers for the prevention of atherosclerosis” (The Board of Regents of the University of Nebraska, priority 1996, dated 2002)
# Entries after “also recorded” stand apart in the source; their conditions may differ.
# Experiments:
# [1] = system: human aortic smooth muscle cells; assay: 3H thymidine uptake in human aortic smooth muscle cells; format: cell-based
# Procedure: FIG. 13 is a graph illustrating 3 H thymidine uptake of human aortic smooth muscle cells in response to differing concentrations of Hcy.
# Smooth muscle cell cultures were established from samples of thoracic aorta obtained during organ transplantation. Confluent early passage cells were growth arrested by serum starvation, then they were treated with Hcy in serum free (defined) medium.
# N-VSMC [2] = assay: [3H]thymidine incorporation (DNA synthesis) in N-VSMC cultures; format: cell-based, chicken
# Procedure: FIG. 1 is a graph illustrating homocysteine's effects on the growth of VSMC cultures. Confluent N-VSMC cultures were growth arrested by incubating cells with M199 medium containing 1 μg/ml BSA for 48 h, exposed to various concentrations of H[cys] (0.01-4000μM) for 30 h, pulse labeled for 6 h with 2 μCi/ml [^3H]-thymidine, and cell monolayers were washed twice with cold (0° C.) 10% trichloroacetic acid (TCA). The amount of [^3H]-thymidine incorporation was determined by scintillation spectrophotometry. Results are shown as the means of ±S.D.
# FIGS. 2A-2C are graphs illustrating the effects of glutamate, homocysteic acid and NMDA on DNA synthesis in N-VSMC. N-VSMC were cultured and serum-deprived as described in “Experimental Procedures.” Cultures were treated with various concentrations of homocysteic acid (2A), NMDA (2B), or L-glutamate (2C) for 30 and pulsed 6h with [^3H] thymidine. All values are expressed as ±S.D. of six independent experiments completed in quadruplicate.
# (§1) Smooth Muscle Culture: The thoracic (N) and abdominal (M) aorta of normal 16 and 18-day embryos were cleaned of fat, and the intima-media was isolated from the adventitia. The intima-media was enzymatically dispersed into a single cell suspensions by a combination of collagenase and elastase followed by trypsin. VSMC were placed in primary culture at a constant density of 2×10^4 cells/cm^2 in multiwell plates or 100 mm culture plates in Medium 199 supplemented with 10% fetal bovine serum (FMS) and 2 mM glutamine, in an atmosphere of 95% air: 5% Co2 at 37° C. Primary cultures were grown for 7 days before they were seeded into first passage at the same cell density and grown to confluence. Experiments were carried out between passages 3-6. Experimental conditions for all cells included 48 h in Medium 199 supplemented with 1% FBS prior to initiating and experiment.
# (§2) DNA Synthesis: Growth factors were added directly to quiescent VSMCs in Medium 199 as described above. The cells were pulsed between 4-6 h with a final concentration of 2-5 μCi/ml [^3H]thymidine added at the times and for the periods indicated in the figure legends. The cells were washed, and the incorporation of [^3H]thymidine into acid insoluble material was determined as previously described. Den-Heijer, M. et al. (1996), Hyperhomocystinemia as a risk factor for deep-vein thrombosis. N. Eng. J. Med. 334(12):759-762.
# [3] = system: mouse aortic smooth muscle cells; assay: 3H thymidine uptake / mitogenic effect in mouse aortic smooth muscle cells; format: cell-based
# Procedure: The mitogenic and other effects of growth factors are exaggerated in late embryonic or fetal smooth muscle cells, and cells in the late fetal state provide a high contrast picture of their subsequent, post-natal, responses. To take advantage of this effect, late fetal C57BL/6×129 mice were obtained and aortic smooth muscle cell cultures were prepared according to the inventors' previously published methods set forth above. These cells were treated with a series of Hcy dilutions (10 μM-100 μM) as described above. […] Subsequently, the fetal mouse smooth muscle cells were treated with a number of variations of the incubation medium containing the Hcy. In no case did Hcy produce a measurable mitogenic effect. […] Aortic smooth muscle cells were obtained from mice of this strain that were 3-6 months old, and were treated with various concentrations of Hcy.
# Myb protein = assay: Expression of Myb protein in rabbit aortic cells; format: cell-based
# Procedure: (§3) For each of the following experiments, aortic smooth muscle cells were obtained from 2-3 lb. New Zealand rabbits; these cells were cultured as described above, and evaluated for their responses to Hcy.
# TA-VSMCs = assay: [3H]thymidine labeling (DNA synthesis) in TA-VSMCs; format: cell-based; details: 0.1 to 1 mM
# Description: Effect of calcium channel activation on DNA synthesis. Effect of glutamate receptor calcium channels and L-type calcium channels activation was examined by measuring [^3H]thymidine labeling.
# [4] = system: Rabbit aortic smooth muscle cells; assay: Calcium uptake in rabbit aortic smooth muscle cells; format: cell-based; details: 10μM for 40 seconds
# Procedure: For each of the following experiments, aortic smooth muscle cells were obtained from 2-3 lb. New Zealand rabbits; these cells were cultured as described above, and evaluated for their responses to Hcy. […] This response is similar to that of the embryonic cells (see above).
# rat liver cells = details: cited from earlier work
# N-VSMC [5] = assay: Cell proliferation (cell number) of N-VSMC cultures; format: cell-based, chicken; details: 0.01 to 100 μM for 36 h
# Rabbit aortic cells = assay: Mitogenesis in rabbit aortic cells; format: cell-based
# Procedure: as §3
# [6] = system: VSMC isolated from abdominal; assay: [3H]thymidine incorporation (DNA synthesis) in abdominal aorta VSMC; format: cell-based, chicken; details: abdominal VSMC compared with N-VSMC
# Description: as §1, §2
smiles,measurement,setting,value
N[C@@H](CCS)C(=O)O [homocysteine],effect on DNA synthesis,[1]; human cell cultures of N-VSMC (data not shown),observed
same,uptake of 3H thymidine,"[1]; thoracic aorta cells, serum free medium","significant, dose-responsive increase"
same,DNA synthesis increased,"N-VSMC [2]; N-VSMC incubated with 0.01 to 4000 μM homocysteine, dose dependent and saturable",12 fold
same,DNA synthesis at high concentration,N-VSMC [2]; homocysteine concentrations above 300 μM,completely suppressed
same,DNA synthesis increased,N-VSMC [2]; neural crest derived smooth muscle cells,5 fold
same,mitogenic effect,"[3]; adult C57Bl/6 mice 3-6 months old, various concentrations, listed as Hcy",no mitogenic effect; also recorded: No mitogenic result
same,3H thymidine uptake,"[3]; late fetal C57BL/6×129 mice, 10 μM-100 μM",no enhancement
same,expression of the Myb protein,Myb protein,dose-responsive expression
same,DNA synthesis increased,TA-VSMCs,6 fold
same,calcium flux,[4],significant calcium flux
same,protein bound H[cys] in the microsomal fraction,rat liver cells,50%
same,cell number in the absence of serum,N-VSMC [5],no increase in cell number
same,mitogenic response,Rabbit aortic cells,robust mitogenic response
same,effect on DNA synthesis,[6],did not respond similarly
